Experimental data taken from patent US12590066B2, “Fused-heterocyclyl-carbonohydrazonoyl dicyanide compounds and use thereof” (KOREA INSTITUTE OF SCIENCE AND TECHNOLOGY, priority 2020, dated 2026).

Legend:
tau protein = target: T1, tau protein (Homo sapiens, UniProt P10636); assay: Tau-BiFC cell model, inhibition of Forskolin-induced tau protein aggregation; format: cell-based; details: Forskolin 30 μM, 48 hours; for Tau BiFC in cells Response (% @10 μM): 10 μM compound, Forskolin-only group = 100% tau protein-aggregated state; for IC50: tau-BiFC cells
T1 construct: BiFC fluorescent-protein fragments (type and halves not specified); expressed in transfected cells
Summary of the method: (§1)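 Tau-BiFC cells co-treated 48 h with 30 μM forskolin and compounds (1, 3, 10 μM screen; 0.01–30 μM dose-response). BiFC fluorescence normalized to forskolin-only (100% aggregation) minus untreated gives aggregation inhibition and IC50; viability as Hoechst-stained nuclei count relative to forskolin-only.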

Tau-BiFC cells = assay: Cell viability (stained nuclei count) in Tau-BiFC cells; format: cell-based; details: 10 μM compound, 48 hours; Forskolin-only group = 100% cell viability
Summary of the method: as §1

[1] = Liver microsome stability; format: in vitro ADME; details: 1 μM compound, 37° C., 30 minutes, NADPH; for Human (%) amount of substrate remaining after the reaction: human liver microsomes 0.25 mg/mL; for Mouse (%) amount of substrate remaining after the reaction: mouse liver microsomes 0.25 mg/mL; for Rat (%) amount of substrate remaining after the reaction: rat liver microsomes 0.25 mg/mL
Description: The stability of liver microsomes due to the compounds prepared according to Examples 1 to 57 was confirmed. Specifically, four types of liver microsomes (human, dog, rat, and mouse, each 0.25 mg/mL), a 0.1 M phosphate buffer solution (pH 7.4), and each of the compounds at a concentration of 1 μM were mixed and pre-cultured at 37° C. for 5 minutes and further cultured at 37° C. for 30 minutes together with an NADPH generation system solution added thereto. Thereafter, the reaction was terminated by adding an acetonitrile solution containing an internal standard material (chloropropamide) and centrifuged for 5 minutes (14,000 rpm, 4° C.), and then a supernatant was injected into an LC-MS/MS system for analysis of substrate drugs to thereby evaluate metabolic stability due to 8 types of compounds.
The amount of the substrate remaining after the reaction was analyzed using the Shimadzu Nexera XR system and TSQ Vantage (Thermo). In an HPLC column, Kinetex XB-C18 (2.1 mm×100 mm, particle size of 2.6 μm; Phenomenex, USA) was used, and mobile phases were (A) distilled water containing 0.1% formic acid and (B) acetonitrile containing 0.1% formic acid. Analyst software (version 1.6.3) and Xcalibur (version 1.6.1) were used for data analysis.

T1 sequence (P10636 1-441 isoform P10636-8): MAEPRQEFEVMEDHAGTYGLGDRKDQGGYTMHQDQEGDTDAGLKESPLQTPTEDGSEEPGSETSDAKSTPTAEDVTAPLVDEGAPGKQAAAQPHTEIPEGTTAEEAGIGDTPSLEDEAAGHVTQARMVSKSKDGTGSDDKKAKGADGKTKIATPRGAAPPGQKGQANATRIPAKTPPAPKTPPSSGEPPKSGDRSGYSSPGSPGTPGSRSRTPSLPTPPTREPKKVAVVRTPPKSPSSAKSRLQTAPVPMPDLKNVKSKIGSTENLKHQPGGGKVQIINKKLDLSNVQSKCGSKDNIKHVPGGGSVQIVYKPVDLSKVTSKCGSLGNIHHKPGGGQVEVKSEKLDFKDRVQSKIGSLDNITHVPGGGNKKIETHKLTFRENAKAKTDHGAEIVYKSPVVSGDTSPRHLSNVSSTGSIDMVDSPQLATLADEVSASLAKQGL

SMILES: CC(C)n1c(=O)oc2ccc(NN=C(C#N)C#N)cc21 [Compound 29, (3-isopropyl-2-oxo-2,3-dihydrobenzo[d]oxazol-5-yl)carbonohydrazonoyl dicyanide]
- Tau BiFC in cells Response (% @10 μM) (tau protein): −31%
- IC50 (tau protein): 70 nM
- Cell viability (% @10 μM) (Tau-BiFC cells): 133%
- Human (%) amount of substrate remaining after the reaction [1]: >100%
- Mouse (%) amount of substrate remaining after the reaction [1]: 88.9%
- Rat (%) amount of substrate remaining after the reaction [1]: 96.4%

SMILES: COc1cc(NN=C(C#N)C#N)cc2c1n(C)c(=O)n2C [Compound 33, (7-methoxy-1,3-dimethyl-2-oxo-2,3-dihydro-1H-benzo[d]imidazol-5-yl)carbonohydrazonoyl dicyanide]
- Tau BiFC in cells Response (% @10 μM) (tau protein): −43%
- IC50 (tau protein): 5 nM
- Cell viability (% @10 μM) (Tau-BiFC cells): 114%
- Human (%) amount of substrate remaining after the reaction [1]: 93.2%
- Mouse (%) amount of substrate remaining after the reaction [1]: 78.7%
- Rat (%) amount of substrate remaining after the reaction [1]: 85.5%

SMILES: CC(C)n1c(=O)n(C(C)C)c2ncc(NN=C(C#N)C#N)cc21 [Compound 34, (1,3-diisopropyl-2-oxo-2,3-dihydro-1H-imidazo[4,5-b]pyridin-6-yl)carbonohydrazonoyl dicyanide]
- Tau BiFC in cells Response (% @10 μM) (tau protein): −45%
- IC50 (tau protein): 50 nM
- Cell viability (% @10 μM) (Tau-BiFC cells): 120%
- Human (%) amount of substrate remaining after the reaction [1]: >100%
- Mouse (%) amount of substrate remaining after the reaction [1]: 86.6%
- Rat (%) amount of substrate remaining after the reaction [1]: 57.5%

SMILES: CCn1c(=O)n(C)c2ccc(NN=C(C#N)C#N)cc21 [Compound 35, (3-ethyl-1-methyl-2-oxo-2,3-dihydro-1H-benzo[d]imidazol-5-yl)carbonohydrazonoyl dicyanide]
- Tau BiFC in cells Response (% @10 μM) (tau protein): −44%
- IC50 (tau protein): 10 nM
- Cell viability (% @10 μM) (Tau-BiFC cells): 130%
- Human (%) amount of substrate remaining after the reaction [1]: 98.7%
- Mouse (%) amount of substrate remaining after the reaction [1]: 87.1%
- Rat (%) amount of substrate remaining after the reaction [1]: 86%

SMILES: CC(C)n1c(=O)n(C)c2ccc(NN=C(C#N)C#N)cc21 [Compound 36, (3-isopropyl-1-methyl-2-oxo-2,3-dihydro-1H-benzo[d]imidazol-5-yl)carbonohydrazonoyl dicyanide]
- Tau BiFC in cells Response (% @10 μM) (tau protein): −57%
- IC50 (tau protein): 20 nM
- Cell viability (% @10 μM) (Tau-BiFC cells): 104%
- Human (%) amount of substrate remaining after the reaction [1]: >100%
- Mouse (%) amount of substrate remaining after the reaction [1]: 89.4%
- Rat (%) amount of substrate remaining after the reaction [1]: 86.4%

SMILES: Cn1c(=O)n(C(F)F)c2cc(NN=C(C#N)C#N)ccc21 [Compound 37, (3-(difluoromethyl)-1-methyl-2-oxo-2,3-dihydro-1H-benzo[d]imidazol-5-yl)carbonohydrazonoyl dicyanide]
- Tau BiFC in cells Response (% @10 μM) (tau protein): −49%
- IC50 (tau protein): 200 nM
- Cell viability (% @10 μM) (Tau-BiFC cells): 121%
- Human (%) amount of substrate remaining after the reaction [1]: 84.9%
- Mouse (%) amount of substrate remaining after the reaction [1]: 75.7%
- Rat (%) amount of substrate remaining after the reaction [1]: 58.5%

SMILES: CCn1c(=O)n(C)c2cc(NN=C(C#N)C#N)ccc21 [Compound 38, (1-ethyl-3-methyl-2-oxo-2,3-dihydro-1H-benzo[d]imidazol-5-yl)carbonohydrazonoyl dicyanide]
- Tau BiFC in cells Response (% @10 μM) (tau protein): −31%
- IC50 (tau protein): 30 nM
- Cell viability (% @10 μM) (Tau-BiFC cells): 106%
- Human (%) amount of substrate remaining after the reaction [1]: 95%
- Mouse (%) amount of substrate remaining after the reaction [1]: 81.6%
- Rat (%) amount of substrate remaining after the reaction [1]: 91.8%

SMILES: CC(C)n1c(=O)n(C2CC2)c2ccc(NN=C(C#N)C#N)cc21 [Compound 42, (1-cyclopropyl-3-isopropyl-2-oxo-2,3-dihydro-1H-benzo[d]imidazol-5-yl)carbonohydrazonoyl dicyanide]
- Tau BiFC in cells Response (% @10 μM) (tau protein): −52%
- IC50 (tau protein): 80 nM
- Cell viability (% @10 μM) (Tau-BiFC cells): 124%
- Human (%) amount of substrate remaining after the reaction [1]: 81.7%
- Mouse (%) amount of substrate remaining after the reaction [1]: 63.4%
- Rat (%) amount of substrate remaining after the reaction [1]: 78.7%

SMILES: CC(C)n1c(=O)n(C(F)F)c2cc(NN=C(C#N)C#N)ccc21 [Compound 43, (3-(difluoromethyl)-1-isopropyl-2-oxo-2,3-dihydro-1H-benzo[d]imidazol-5-yl)carbonohydrazonoyl dicyanide]
- Tau BiFC in cells Response (% @10 μM) (tau protein): −49%
- IC50 (tau protein): 10 nM
- Cell viability (% @10 μM) (Tau-BiFC cells): 96%
- Human (%) amount of substrate remaining after the reaction [1]: 81.5%
- Mouse (%) amount of substrate remaining after the reaction [1]: 58.6%
- Rat (%) amount of substrate remaining after the reaction [1]: 86.2%

SMILES: CCn1c(=O)n(C)c2cc(NN=C(C#N)C#N)cnc21 [Compound 48, (3-ethyl-1-methyl-2-oxo-2,3-dihydro-1H-imidazo[4,5-b]pyridin-6-yl)carbonohydrazonoyl dicyanide]
- Tau BiFC in cells Response (% @10 μM) (tau protein): −18%
- IC50 (tau protein): 60 nM
- Cell viability (% @10 μM) (Tau-BiFC cells): 143%
- Human (%) amount of substrate remaining after the reaction [1]: 96.7%
- Mouse (%) amount of substrate remaining after the reaction [1]: >100%
- Rat (%) amount of substrate remaining after the reaction [1]: 96.3%

SMILES: CC(C)n1c(=O)n(C2CC2)c2ncc(NN=C(C#N)C#N)cc21 [Compound 53, (3-cyclopropyl-1-isopropyl-2-oxo-2,3-dihydro-1H-imidazo[4,5-b]pyridin-6-yl)carbonohydrazonoyl dicyanide]
- Tau BiFC in cells Response (% @10 μM) (tau protein): −39%
- IC50 (tau protein): 160 nM
- Cell viability (% @10 μM) (Tau-BiFC cells): 125%
- Human (%) amount of substrate remaining after the reaction [1]: 84.6%
- Mouse (%) amount of substrate remaining after the reaction [1]: 83.5%
- Rat (%) amount of substrate remaining after the reaction [1]: 82.1%

SMILES: CCn1c(=O)n(C(C)C)c2ncc(NN=C(C#N)C#N)cc21 [Compound 55, (1-ethyl-3-isopropyl-2-oxo-2,3-dihydro-1H-imidazo[4,5-b]pyridin-6-yl)carbonohydrazonoyl dicyanide]
- Tau BiFC in cells Response (% @10 μM) (tau protein): −32%
- IC50 (tau protein): 110 nM
- Cell viability (% @10 μM) (Tau-BiFC cells): 124%
- Human (%) amount of substrate remaining after the reaction [1]: 85.5%
- Mouse (%) amount of substrate remaining after the reaction [1]: 87.7%
- Rat (%) amount of substrate remaining after the reaction [1]: 91.8%
